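How tested: cells in 96-well plates exposed to compound for 48 hours at five concentrations. At the GI50, growth is halved.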 Calls of active or inactive are those of the source. Cut-off read from the data, not from the text of the source: active = GI50 up to about 1.1 µM and inactive = higher.

What all share (assay): NCI tumour cell line growth inhibition, 48 h
Assay [1] deals with 786-0.
Assay [2] deals with A498.
Assay [3] relates to COLO 205.
Assay [4] concerns HCT-116.
Assay [5] relates to HOP-92.
The test system of assay [6] is IGROV-1.
In assay [7] the test system is KM12.
For assay [8], the system named is MOLT-4.
Assay [9] concerns OVCAR-8.
For assay [10], the system named is PC-3.
The test system of assay [11] is SK-MEL-2.
In assay [12] the test system is SK-MEL-5.
The subject of assay [13] is SW-620.
The test system of assay [14] is UO-31.
In assay [15] the test system is NCI-H522.
Assay [16] relates to OVCAR-4.
In assay [17] the test system is RXF 393.
Assay [18] relates to SF-268.
Assay [19] relates to SF-539.

On to `O=S(=O)(/N=C1/S/C(=N\c2ccccc2)N(c2ccccc2)/C1=N/S(=O)(=O)c1ccccc1)c1ccccc1`, for which the GI50 was 19 µM (inactive) in [1]; 11.4 µM (inactive) in assay [2]; 26.9 µM (inactive) in [3]; 17.6 µM (inactive) in assay [4]; 13.6 µM (inactive) in assay [5]; 20.5 µM (inactive) in assay [6]. The GI50 in [7] is 19.4 µM (inactive); in [8], 21.4 µM (inactive); in assay [9] it was 22.8 µM (inactive); in [10], > 10 µM (inactive); in [11], 15.2 µM (inactive); in assay [12], 16.3 µM (inactive). Also, the values for the GI50 in assay [13] and in [14] were 19.4 µM (inactive) and 15.8 µM (inactive), respectively.

Take `O=c1c2ccccc2nc(-c2ccccc2)n1NC(=S)Nc1cccc(Cl)c1`: the GI50 in assay [1] was 68.1 µM (inactive); in [2], > 100 µM (inactive); in assay [3], > 100 µM (inactive); in assay [4], 95.7 µM (inactive); in [5] it was 31.8 µM (inactive); in [6] it was > 100 µM (inactive). The GI50 in assay [7] was > 100 µM (inactive); in [8], > 100 µM (inactive); in assay [15] it was 46.7 µM (inactive); in [16], > 100 µM (inactive); in assay [9], > 100 µM (inactive); in assay [17] it was 27.2 µM (inactive). Moreover, the GI50 is 43.7 µM (inactive) in assay [18]; 79.1 µM (inactive) in assay [19]; > 100 µM (inactive) in assay [11]; > 100 µM (inactive) in [12]; > 100 µM (inactive) in assay [13]; 89.1 µM (inactive) in assay [14].

Take `COC(=O)NN=C1C(C)(C)C(=O)C1(C)C`: the GI50 in assay [1], in [2], in assay [3], in assay [4], in [5] and in assay [6] was > 100 µM (inactive) in each case. The GI50 in [7], in [8], in assay [15], in assay [9], in [17] and in assay [18] was > 100 µM (inactive) throughout. The GI50 in assay [19], in assay [11], in assay [12], in assay [13] and in assay [14] was > 100 µM (inactive) throughout.

Turning to `COc1cc([C@@H]2c3cc4c(cc3[C@@H](NC(=O)c3ccc(C#N)cc3)C3COC(=O)[C@@H]32)OCO4)cc(OC)c1O` (stereo partly specified), the GI50 in assay [1] is 0.411 µM (active); in assay [2] it was 1.02 µM (active); in assay [3] it was 2.94 µM (inactive); in assay [4], 0.459 µM (active); in assay [5], 0.586 µM (active); in [6] it was 0.191 µM (active). For the same molecule, the GI50 in assay [7] was 1.02 µM (active); in assay [8], 3.63 µM (inactive); in [15] it was 0.451 µM (active); in [16], 8.93 µM (inactive); in assay [9] it was 0.719 µM (active); in assay [17] it was 1.97 µM (inactive). Besides, the GI50 is 0.847 µM (active) in [18]; 0.249 µM (active) in assay [19]; 2.29 µM (inactive) in assay [11]; 0.743 µM (active) in [12]; 0.331 µM (active) in assay [13]; 4.03 µM (inactive) in assay [14].

Turning to `Cc1cc(-c2no[n+]([O-])c2-c2cc(C)sc2S(C)(=O)=O)c(S(C)(=O)=O)s1`, the GI50 in assay [1], in assay [2], in assay [3], in assay [4], in [5] and in assay [6] was > 100 µM (inactive) each time. Besides, the GI50 in assay [7] is > 100 µM (inactive); in assay [8], > 100 µM (inactive); in assay [15] it was 87.5 µM (inactive); in assay [16], > 100 µM (inactive); in [9], > 100 µM (inactive); in assay [10] it was > 100 µM (inactive). In addition, the GI50 in assay [18], in [19], in assay [11], in assay [12], in [13] and in [14] was > 100 µM (inactive) in each case.

Take `O=C1[C@@H]2C(c3ccccc3[N+](=O)[O-])=[N+](c3ccccc3)O[C@@H]2C(=O)N1c1ccc(Cc2ccc(N3C(=O)[C@H]4C(c5ccccc5[N+](=O)[O-])=[N+](c5ccccc5)O[C@H]4C3=O)cc2)cc1`: the GI50 in assay [1] was > 100 µM (inactive); in assay [2], > 100 µM (inactive); in [3], 33.4 µM (inactive); in assay [4], > 100 µM (inactive); in assay [5], 49 µM (inactive); in assay [6] it was > 100 µM (inactive). The GI50 in assay [7], in assay [8], in [15], in [16], in assay [9] and in [17] was > 100 µM (inactive) throughout. For the same molecule, the GI50 is > 100 µM (inactive) in [18]; > 100 µM (inactive) in assay [19]; > 100 µM (inactive) in assay [11]; 43.1 µM (inactive) in assay [12]; > 100 µM (inactive) in assay [13]; > 100 µM (inactive) in assay [14].

As for `COc1ccc(NCC#N)cc1`, the GI50 is 25.1 µM (inactive) in assay [1]; > 100 µM (inactive) in [2]; > 100 µM (inactive) in assay [3]; > 100 µM (inactive) in assay [4]; > 100 µM (inactive) in assay [5]; > 100 µM (inactive) in assay [6]. For the same molecule, the GI50 in assay [7], in assay [8], in assay [15], in assay [9], in assay [17] and in [18] was > 100 µM (inactive) in each case. Besides, the GI50 in [19], in assay [11], in [12], in [13] and in assay [14] was > 100 µM (inactive) each time.

With `O=[N+]([O-])c1ccc(Cc2nc3ccccc3s2)cc1`, the GI50 was > 100 µM (inactive) in [1]; > 100 µM (inactive) in assay [2]; > 100 µM (inactive) in assay [3]; 38.9 µM (inactive) in assay [4]; > 100 µM (inactive) in assay [5]; > 100 µM (inactive) in assay [6]. Moreover, the GI50 in assay [7] was > 100 µM (inactive); in assay [8], 75.2 µM (inactive); in assay [15] it was 60.4 µM (inactive); in assay [16], > 100 µM (inactive); in assay [9], 91.4 µM (inactive); in [17] it was > 100 µM (inactive). Moreover, the GI50 was 74.1 µM (inactive) in assay [18]; 26.8 µM (inactive) in assay [19]; > 100 µM (inactive) in assay [11]; 87.3 µM (inactive) in [12]; 59.3 µM (inactive) in [13]; > 100 µM (inactive) in assay [14].

With `Fc1cccc(F)c1C1SCc2nc3ccccc3n21` (stereo unspecified) [THIAZOLOBENZIMIDAZOLE], the GI50 was > 100 µM (inactive) in assay [1]; > 100 µM (inactive) in [2]; > 100 µM (inactive) in [3]; 65.2 µM (inactive) in assay [4]; 28.5 µM (inactive) in assay [5]; 80.9 µM (inactive) in [6]. For the same molecule, the GI50 in [7] is > 100 µM (inactive); in [8] it was 35.3 µM (inactive); in [15], 53.7 µM (inactive); in [16], > 100 µM (inactive); in assay [9], 77.8 µM (inactive); in assay [17], > 100 µM (inactive). In addition, the GI50 in assay [18] is > 100 µM (inactive); in [19], > 100 µM (inactive); in assay [11] it was > 100 µM (inactive); in assay [12], 31.5 µM (inactive); in assay [13] it was > 100 µM (inactive); in assay [14] it was 51.5 µM (inactive).

As to `CC(N)(/C=C/c1ccccc1)C(=O)O` (stereo unspecified), the GI50 in [1], in assay [2], in assay [3], in [4], in assay [5] and in assay [6] was > 100 µM (inactive) in each case. The GI50 in assay [7], in [8], in assay [15], in assay [16], in assay [9] and in assay [10] was > 100 µM (inactive) in each case. For the same molecule, the GI50 in assay [18], in [19], in assay [11], in assay [12], in assay [13] and in [14] was > 100 µM (inactive) each time.

Turning to `CN1C/C(=C\c2ccc(C(=O)O)cc2)C(=O)/C(=C/c2ccc(C(=O)O)cc2)C1`, the GI50 in assay [1], in assay [2], in [3], in assay [4], in [5] and in [6] was > 100 µM (inactive) throughout. Further, the GI50 in assay [7], in assay [8], in [16], in assay [9], in assay [17] and in assay [18] was > 100 µM (inactive) each time. Moreover, the GI50 in assay [19], in [11], in assay [12], in [13] and in assay [14] was > 100 µM (inactive) in each case.

Source of the values: ChEMBL document CHEMBL1201862, “PubChem BioAssay data set” (2004).
